# Assays:
# [1] = biological target: CDK2/Cyclin E1 (Homo sapiens, UniProt P24941); assay: CDK2/Cyclin E1 Biochemical Assay (TR-FRET), 0.060 mM ATP; settings: 0.15 μM Rb (Ser780)-biotin substrate, pH7.0, 60 min preincubation, 120 min reaction, room temperature
# In short: (§1)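 Percent inhibition was derived from the 665 nm/620 nm TR-FRET ratio after a 120-minute room-temperature reaction on 0.15 μM Rb (Ser780)-biotin, preceded by 60-minute enzyme–compound preincubation. IC50 came from four-parameter logistic fitting.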
# [2] = biological target: CDK1/Cyclin B1 (Homo sapiens, UniProt P06493); assay: CDK1/Cyclin B1 Biochemical Assay (TR-FRET), 0.015 mM ATP; settings: 0.15 μM Rb (Ser780)-biotin substrate, pH7.0, 60 min preincubation, 120 min reaction, room temperature
# Sequence of CDK1/Cyclin B1 (P06493 whole entry): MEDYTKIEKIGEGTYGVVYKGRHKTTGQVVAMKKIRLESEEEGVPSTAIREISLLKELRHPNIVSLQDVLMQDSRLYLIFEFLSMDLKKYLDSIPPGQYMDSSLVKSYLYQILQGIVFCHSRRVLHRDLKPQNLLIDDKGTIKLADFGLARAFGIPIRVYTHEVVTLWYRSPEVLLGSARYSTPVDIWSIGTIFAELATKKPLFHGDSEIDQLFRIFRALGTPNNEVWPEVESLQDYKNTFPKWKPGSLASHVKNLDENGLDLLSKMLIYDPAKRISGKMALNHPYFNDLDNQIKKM
# Sequence of CDK1/Cyclin B1 (P14635 whole entry partner): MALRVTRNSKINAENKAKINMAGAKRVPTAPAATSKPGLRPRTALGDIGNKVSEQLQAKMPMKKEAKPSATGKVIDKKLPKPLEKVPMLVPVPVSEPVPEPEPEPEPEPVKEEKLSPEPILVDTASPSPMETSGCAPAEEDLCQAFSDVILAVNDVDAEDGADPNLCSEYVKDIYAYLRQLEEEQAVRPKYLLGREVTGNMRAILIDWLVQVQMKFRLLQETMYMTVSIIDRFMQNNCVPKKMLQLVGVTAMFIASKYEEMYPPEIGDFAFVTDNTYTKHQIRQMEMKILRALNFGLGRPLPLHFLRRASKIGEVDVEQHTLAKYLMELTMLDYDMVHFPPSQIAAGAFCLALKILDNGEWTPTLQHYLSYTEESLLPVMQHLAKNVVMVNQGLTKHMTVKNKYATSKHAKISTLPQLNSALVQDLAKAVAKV
# In short: as §1
SMILES,IC50 [1] [nM],IC50 [2] [nM]
"CC1(NC(=O)O[C@H]2CC[C@@H](c3cc(Nc4ccc5c(c4F)S(=O)(=O)NC5)n[nH]3)C2)CC1 (relative stereo) [Example 187, cis-3-(3-((7-fluoro-1,1-dioxido-2,3-dihydrobenzo[d]isothiazol-6-yl)amino)-1H-pyrazol-5-yl)cyclopentyl(1-methylcyclopropyl)carbamate]",0.7,14
"CC(C)NC(=O)O[C@H]1CC[C@@H](c2cc(Nc3ccc4c(c3F)S(=O)(=O)N(C)C4)n[nH]2)C1 (relative stereo) [Example 190, cis-3-(3-((7-fluoro-2-methyl-1,1-dioxido-2,3-dihydrobenzo[d]isothiazol-6-yl)amino)-1H-pyrazol-5-yl)cyclopentyl isopropylcarbamate]",8.1,328
"CC(C)(C)NC(=O)O[C@H]1CC[C@@H](c2cc(Nc3cc4c(cc3F)S(=O)(=O)NC4)n[nH]2)C1 (single isomer, unassigned) [Example 395b]",1.3,114
"[2H]C([2H])([2H])N1c2ccc(Nc3cc([C@@H]4CC[C@H](OC(=O)NC(C)C)C4)[nH]n3)cc2CS1(=O)=O (relative stereo) [Example 206, cis-3-(3-((1-(methyl-d3)-2,2-dioxido-1,3-dihydrobenzo[c]isothiazol-5-yl)amino)-1H-pyrazol-5-yl)cyclopentyl isopropylcarbamate]",6.4,63
"CC1(NC(=O)O[C@H]2CC[C@@H](c3cc(Nc4ccc5c(c4F)CS(=O)(=O)N5CC(F)(F)F)n[nH]3)C2)CCOC1 (relative stereo) [Example 407, cis-3-(3-((4-fluoro-2,2-dioxido-1-(2,2,2-trifluoroethyl)-1,3-dihydrobenzo[c]isothiazol-5-yl)amino)-1H-pyrazol-5-yl)cyclopentyl(3-methyltetrahydrofuran-3-yl)carbamate]",1.6,129
"[2H]C([2H])([2H])N1c2c(F)cc(Nc3cc([C@@H]4CC[C@H](OC(=O)NC5(C)CC5)C4)[nH]n3)cc2CS1(=O)=O (single isomer, unassigned) [Example 291b, cis-3-(3-((7-fluoro-1-(methyl-d3)-2,2-dioxido-1,3-dihydrobenzo[c]isothiazol-5-yl)amino)-1H-pyrazol-5-yl)cyclopentyl(1-methylcyclopropyl)carbamate]",1.3,48
"CN1Cc2c(ccc(Nc3cc([C@@H]4CC[C@H](OC(=O)NC5(C)CCOC5)C4)[nH]n3)c2F)S1(=O)=O (relative stereo) [Example 335, cis-3-(3-((4-fluoro-2-methyl-1,1-dioxido-2,3-dihydrobenzo[d]isothiazol-5-yl)amino)-1H-pyrazol-5-yl)cyclopentyl(3-methyltetrahydrofuran-3-yl)carbamate]",5.1,351
"CCCNC(=O)O[C@H]1CC[C@@H](c2cc(Nc3ccc4c(c3F)CNS4(=O)=O)n[nH]2)C1 (single isomer, unassigned) [Example 138b]",1.5,60
"CC(C)NC(=O)O[C@H]1CC[C@@H](c2cc(Nc3ccc4c(c3F)CN(C3CCCN(C)C3=O)S4(=O)=O)n[nH]2)C1 (relative stereo) [Example 88, cis-3-(3-((4-fluoro-2-(1-methyl-2-oxopiperidin-3-yl)-1,1-dioxido-2,3-dihydrobenzo[d]isothiazol-5-yl)amino)-1H-pyrazol-5-yl)cyclopentyl isopropylcarbamate]",10,1010
"O=C(NC1CCCC1)O[C@@H]1CC[C@H](c2cc(Nc3ccc4c(c3F)CS(=O)(=O)N4)n[nH]2)C1 (single isomer, unassigned) [Example 400a]",6.9,154
"CC(C)NC(=O)O[C@H]1CC[C@@H](c2cc(Nc3ccc4c(c3CO)CNS4(=O)=O)n[nH]2)C1 (relative stereo) [Example 345, cis-3-(3-((4-(hydroxymethyl)-1,1-dioxido-2,3-dihydrobenzo[d]isothiazol-5-yl)amino)-1H-pyrazol-5-yl)cyclopentyl isopropylcarbamate]",64,1730
"CC(C)NC(=O)O[C@H]1CC[C@@H](c2cc(Nc3ccc4c(c3F)CN(CC3CC3)S4(=O)=O)n[nH]2)C1 (relative stereo) [Example 95, cis-3-(3-((2-(cyclopropylmethyl)-4-fluoro-1,1-dioxido-2,3-dihydrobenzo[d]isothiazol-5-yl)amino)-1H-pyrazol-5-yl)cyclopentyl isopropylcarbamate]",15,972
"CC(C)NC(=O)O[C@H]1CC[C@@H](c2cc(Nc3ccc4c(c3F)CS(=O)(=O)N4C3COC3)n[nH]2)C1 (single isomer, unassigned) [Example 259a, cis-3-(3-((4-fluoro-1-(oxetan-3-yl)-2,2-dioxido-1,3-dihydrobenzo[c]isothiazol-5-yl)amino)-1H-pyrazol-5-yl)cyclopentyl isopropylcarbamate]",5.4,364
"CC(C)NC(=O)O[C@H]1CC[C@@H](c2cc(Nc3ccc4c(c3F)CN(C3CCNC(=O)C3)S4(=O)=O)n[nH]2)C1 (relative stereo) [Example 81, cis-3-(3-((4-fluoro-1,1-dioxido-2-(2-oxopiperidin-4-yl)-2,3-dihydrobenzo[d]isothiazol-5-yl)amino)-1H-pyrazol-5-yl)cyclopentyl isopropylcarbamate]",7.2,537
"CC(C)NC(=O)O[C@H]1CC[C@@H](c2cc(Nc3ccc4c(c3F)CN(CCN(C)C)S4(=O)=O)n[nH]2)C1 (relative stereo) [Example 74, cis-3-(3-((2-(2-(dimethylamino)ethyl)-4-fluoro-1,1-dioxido-2,3-dihydrobenzo[d]isothiazol-5-yl)amino-1H-pyrazol-5-yl)cyclopentyl isopropylcarbamate]",16,962
"CC(C)NC(=O)O[C@H]1CC[C@@H](c2cc(Nc3ccc4c(c3)CS(=O)(=O)N4C(C)C)n[nH]2)C1 (relative stereo) [Example 202, cis-3-(3-((1-isopropyl-2,2-dioxido-1,3-dihydrobenzo[c]isothiazol-5-yl)amino)-1H-pyrazol-5-yl)cyclopentyl isopropylcarbamate]",6.2,98
"CC(C)NC(=O)O[C@H]1CC[C@@H](c2cc(Nc3ccc4c(c3)C3(CC3)S(=O)(=O)N4C)n[nH]2)C1 (relative stereo) [Example 201, cis-3-(3-((1-methyl-2,2-dioxido-1H-spiro[benzo[c]isothiazole-3,l′-cyclopropan]-5-yl)amino-1H-pyrazol-5-yl)cyclopentyl isopropylcarbamate]",11,130
"CC1NS(=O)(=O)c2ccc(Nc3cc([C@@H]4CC[C@H](OC(=O)NC5(C)CC5)C4)[nH]n3)c(F)c21 (single isomer, unassigned) [Example 52a, cis-3-(3-((4-fluoro-3-methyl-1,1-dioxido-2,3-dihydrobenzo[d]isothiazol-5-yl)amino)-1H-pyrazol-5-yl)cyclopentyl(1-methylcyclopropyl)carbamate]",3.5,274
"CC1NS(=O)(=O)c2ccc(Nc3cc([C@@H]4CC[C@H](OC(=O)NC5(C)CC5)C4)[nH]n3)cc21 (single isomer, unassigned) [Example 322b, cis-3-(3-((3-methyl-1,1-dioxido-2,3-dihydrobenzo[d]isothiazol-5-yl)amino)-1H-pyrazol-5-yl)cyclopentyl(1-methylcyclopropyl)carbamate]",0.6,3.2
"CC(C)NC(=O)O[C@H]1CC[C@@H](c2cc(Nc3ccc4c(c3)C3(CCC3)S(=O)(=O)N4)n[nH]2)C1 (relative stereo) [Example 199, cis-3-(3-((2,2-dioxido-1H-spiro[benzo[c]isothiazole-3,1′-cyclobutan]-5-yl)amino)-1H-pyrazol-5-yl)cyclopentyl isopropylcarbamate]",5.5,84
"CC(C)NC(=O)O[C@H]1CC[C@@H](c2cc(Nc3ccc4c(c3F)CN(CCO)S4(=O)=O)n[nH]2)C1 (single isomer, unassigned) [Example 125b, cis-3-(3-((4-fluoro-2-(2-hydroxyethyl)-1,1-dioxido-2,3-dihydrobenzo[d]isothiazol-5-yl)amino)-1H-pyrazol-5-yl)cyclopentyl isopropylcarbamate]",4.9,341
"COCC(C)(C)NC(=O)O[C@H]1CC[C@@H](c2cc(Nc3ccc4c(c3F)CS(=O)(=O)N4CCO)n[nH]2)C1 (relative stereo) [Example 394, cis-3-(3-((4-fluoro-1-(2-hydroxyethyl)-2,2-dioxido-1,3-dihydrobenzo[c]isothiazol-5-yl)amino)-1H-pyrazol-5-yl)cyclopentyl(1-methoxy-2-methylpropan-2-yl)carbamate]",1.1,45
"CC(C)NC(=O)O[C@H]1CC[C@@H](c2cc(Nc3ccc4c(c3)CCS(=O)(=O)N4)n[nH]2)C1 (single isomer, unassigned) [Example 246a, cis-3-(3-((2,2-dioxido-3,4-dihydro-1H-benzo[c][1,2]thiazin-6-yl)amino)-1H-pyrazol-5-yl)cyclopentyl isopropylcarbamate]",3.4,201
"CN1c2ccc(Nc3cc([C@@H]4CC[C@H](OC(=O)NC(C)(C)CO)C4)[nH]n3)cc2CS1(=O)=O (single isomer, unassigned) [Example 325a, cis-3-(3-((1-methyl-2,2-dioxido-1,3-dihydrobenzo[c]isothiazol-5-yl)amino)-1H-pyrazol-5-yl)cyclopentyl(1-hydroxy-2-methylpropan-2-yl)carbamate]",1.6,23
